Reference: paper PMC5218480 (PLoS ONE, 2017)

Tested on: MV-4-11 cells
Assay: Gene expression microarray analysis (Affymetrix PrimeView) and GSEA
Assay type: cell-based, human
Design: RFU PODN (11730768_x_at) / Fold change /veh PODN (11730768_x_at) / RFU LINC00158 (11744669_a_at) / Fold change /veh LINC00158 (11744669_a_at) / RFU DUSP10 (11751237_a_at) / Fold change /veh DUSP10 (11751237_a_at) / RFU ID3 (11757404_x_at) / Fold change /veh ID3 (11757404_x_at) / RFU PLEKHG5 (11737974_s_at) / Fold change /veh PLEKHG5 (11737974_s_at) / RFU LRRC4B (11730491_at) / Fold change /veh LRRC4B (11730491_at) / RFU GIMAP4 (11747438_a_at) / Fold change /veh GIMAP4 (11747438_a_at) / RFU KRT8 (11758183_x_at) / Fold change /veh KRT8 (11758183_x_at) / RFU CNN1 (11734310_a_at) / Fold change /veh CNN1 (11734310_a_at) / RFU VPS37D (11726825_at) / Fold change /veh VPS37D (11726825_at) / RFU C10orf10 (11716522_x_at) / Fold change /veh C10orf10 (11716522_x_at) / RFU KIR2DL2 /// KIR2DL4 /// KIR2DL5A /// KIR2DL5B /// KIR2DS1 /// KIR2DS2 /// KIR2DS3 /// KIR2DS4 /// KIR3DL3 /// KIR3DL3 /// KIR3DS1 (11738374_at) / Fold change /veh KIR2DL2 /// KIR2DL4 /// KIR2DL5A /// KIR2DL5B /// KIR2DS1 /// KIR2DS2 /// KIR2DS3 /// KIR2DS4 /// KIR3DL3 /// KIR3DL3 /// KIR3DS1 (11738374_at) / RFU C1QL1 (11718748_at) / Fold change /veh C1QL1 (11718748_at) / RFU TMPRSS4 (11747572_a_at) / Fold change /veh TMPRSS4 (11747572_a_at) / RFU HAMP (11756126_x_at) / Fold change /veh HAMP (11756126_x_at) / RFU RNFT2 (11725882_a_at) / Fold change /veh RNFT2 (11725882_a_at) / RFU NR4A2 (11747474_a_at) / Fold change /veh NR4A2 (11747474_a_at) / RFU ABCC12 (11746883_a_at) / Fold change /veh ABCC12 (11746883_a_at) / RFU TMEM136 (11760407_x_at) / Fold change /veh TMEM136 (11760407_x_at) / RFU CLDN22 /// WWC2 (11732394_at) / Fold change /veh CLDN22 /// WWC2 (11732394_at) / RFU HLA-DPB1 (11760878_x_at) / Fold change /veh HLA-DPB1 (11760878_x_at) / RFU SPINT1 (11716480_a_at) / Fold change /veh SPINT1 (11716480_a_at) / RFU GAP43 (11754022_s_at) / Fold change /veh GAP43 (11754022_s_at) / RFU A4GNT (11735810_at) / Fold change /veh A4GNT (11735810_at) / RFU PRB3 (11715151_x_at) / Fold change /veh PRB3 (11715151_x_at) / RFU TUBB4B (11761932_at) / Fold change /veh TUBB4B (11761932_at) / RFU CAPN14 (11732068_a_at) / Fold change /veh CAPN14 (11732068_a_at) / RFU TMCC2 (11721928_a_at) / Fold change /veh TMCC2 (11721928_a_at) / RFU IRGQ (11745062_a_at) / Fold change /veh IRGQ (11745062_a_at) / RFU FAM174B (11720279_a_at) / Fold change /veh FAM174B (11720279_a_at) / RFU TMPRSS4 (11748680_a_at) / Fold change /veh TMPRSS4 (11748680_a_at) / RFU FAM212B (11763350_a_at) / Fold change /veh FAM212B (11763350_a_at) / RFU PLEKHG5 (11743358_a_at) / Fold change /veh PLEKHG5 (11743358_a_at) / RFU ZSCAN30 (11745921_a_at) / Fold change /veh ZSCAN30 (11745921_a_at) / RFU CMKLR1 (11741424_a_at) / Fold change /veh CMKLR1 (11741424_a_at) / RFU LOC101060620 /// MAPK8IP1 (11723275_at) / Fold change /veh LOC101060620 /// MAPK8IP1 (11723275_at) / RFU SPTSSB (11747773_x_at) / Fold change /veh SPTSSB (11747773_x_at) / RFU PRSS12 (11739890_at) / Fold change /veh PRSS12 (11739890_at) / RFU BIN1 (11741810_x_at) / Fold change /veh BIN1 (11741810_x_at) / RFU WNT11 (11732464_a_at) / Fold change /veh WNT11 (11732464_a_at) / RFU C10orf10 (11716521_a_at) / Fold change /veh C10orf10 (11716521_a_at) / RFU C5orf56 (11738089_at) / Fold change /veh C5orf56 (11738089_at) / RFU CYB561 (11721691_x_at) / Fold change /veh CYB561 (11721691_x_at) / RFU ANKRD19P (11752326_a_at) / Fold change /veh ANKRD19P (11752326_a_at) / RFU OR2T12 /// OR2T33 /// OR2T8 (11738714_s_at) / Fold change /veh OR2T12 /// OR2T33 /// OR2T8 (11738714_s_at) / RFU VCAN (11748164_a_at) / Fold change /veh VCAN (11748164_a_at) / RFU JSRP1 (11732532_at) / Fold change /veh JSRP1 (11732532_at) / RFU KRTAP10-11 (11738290_x_at) / Fold change /veh KRTAP10-11 (11738290_x_at) / RFU MYO3A (11730013_a_at) / Fold change /veh MYO3A (11730013_a_at) / RFU EBF3 (11725865_a_at) / Fold change /veh EBF3 (11725865_a_at) / RFU CAMK2N1 (11719241_x_at) / Fold change /veh CAMK2N1 (11719241_x_at) / RFU C5orf56 (11738088_a_at) / Fold change /veh C5orf56 (11738088_a_at) / RFU OLFML3 (11715873_a_at) / Fold change /veh OLFML3 (11715873_a_at) / RFU LOC100653217 /// NTM (11731650_a_at) / Fold change /veh LOC100653217 /// NTM (11731650_a_at) / RFU MAPK11 (11762145_a_at) / Fold change /veh MAPK11 (11762145_a_at) / RFU FIZ1 (11724087_x_at) / Fold change /veh FIZ1 (11724087_x_at) / RFU OASL (11726364_x_at) / Fold change /veh OASL (11726364_x_at) / RFU SOX15 (11748057_x_at) / Fold change /veh SOX15 (11748057_x_at) / RFU CD79A (11719716_a_at) / Fold change /veh CD79A (11719716_a_at) / RFU HIST1H1D (11736915_at) / Fold change /veh HIST1H1D (11736915_at) / RFU CASKIN2 (11723855_a_at) / Fold change /veh CASKIN2 (11723855_a_at) / RFU LOC730098 (11760151_x_at) / Fold change /veh LOC730098 (11760151_x_at) / RFU OR4N2 (11742367_at) / Fold change /veh OR4N2 (11742367_at) / RFU PRRT2 (11749266_a_at) / Fold change /veh PRRT2 (11749266_a_at) / RFU SNX32 (11753110_a_at) / Fold change /veh SNX32 (11753110_a_at) / RFU CDHR5 (11726645_a_at) / Fold change /veh CDHR5 (11726645_a_at) / RFU RCAN1 (11760418_a_at) / Fold change /veh RCAN1 (11760418_a_at) / RFU FAM167A (11723789_a_at) / Fold change /veh FAM167A (11723789_a_at) / RFU FAM26E (11764081_at) / Fold change /veh FAM26E (11764081_at) / RFU ISYNA1 (11749810_s_at) / Fold change /veh ISYNA1 (11749810_s_at) / RFU ACY1 (11761880_at) / Fold change /veh ACY1 (11761880_at) / RFU 11764098_at / Fold change /veh 11764098_at / RFU SAMD14 (11745864_x_at) / Fold change /veh SAMD14 (11745864_x_at) / RFU NPB (11741838_a_at) / Fold change /veh NPB (11741838_a_at) / RFU TMPRSS6 (11731388_a_at) / Fold change /veh TMPRSS6 (11731388_a_at) / RFU KRTAP10-2 (11738614_at) / Fold change /veh KRTAP10-2 (11738614_at) / RFU ARHGAP8 /// PRR5-ARHGAP8 (11727945_x_at) / Fold change /veh ARHGAP8 /// PRR5-ARHGAP8 (11727945_x_at) / RFU KRTAP5-7 /// NADSYN1 (11734609_at) / Fold change /veh KRTAP5-7 /// NADSYN1 (11734609_at) / RFU RASL12 (11751679_a_at) / Fold change /veh RASL12 (11751679_a_at) / RFU CDKN2B (11736163_a_at) / Fold change /veh CDKN2B (11736163_a_at) / RFU PRF1 (11729649_at) / Fold change /veh PRF1 (11729649_at) / RFU, ZNF638 /// ZNF638-IT1 / Fold change vs veh, ZNF638 /// ZNF638-IT1 / RFU, PANK3 / Fold change vs veh, PANK3 / RFU, SH3YL1 / Fold change vs veh, SH3YL1 / RFU, ZEB2 / Fold change vs veh, ZEB2 / RFU, NRIP1 / Fold change vs veh, NRIP1 / RFU, PTTG1IP / Fold change vs veh, PTTG1IP / RFU, CAPN2 / Fold change vs veh, CAPN2 / RFU, MED14 / Fold change vs veh, MED14 / RFU, SNORA58 / Fold change vs veh, SNORA58 / RFU, C1orf63 / Fold change vs veh, C1orf63 / RFU, LRRFIP1 / Fold change vs veh, LRRFIP1 / RFU, NDUFAF7 / Fold change vs veh, NDUFAF7 / RFU, SLC12A2 / Fold change vs veh, SLC12A2 / RFU, IBTK / Fold change vs veh, IBTK / RFU, ESF1 / Fold change vs veh, ESF1 / Fold change vs veh, TMEM50B / RFU, TAOK1 / Fold change vs veh, TAOK1 / RFU, ACBD3 / Fold change vs veh, ACBD3 / RFU, TMA16 / Fold change vs veh, TMA16 / RFU, RWDD3 / Fold change vs veh, RWDD3 / RFU, BCAT1 / Fold change vs veh, BCAT1 / RFU, EDEM3 / Fold change vs veh, EDEM3 / RFU, TMEM33 / Fold change vs veh, TMEM33 / RFU, WDR75 / Fold change vs veh, WDR75 / RFU, AHCTF1 / Fold change vs veh, AHCTF1 / RFU, TFRC / Fold change vs veh, TFRC / RFU, ZDHHC17 / Fold change vs veh, ZDHHC17 / RFU, NOM1 / Fold change vs veh, NOM1 / RFU, ARL8B / Fold change vs veh, ARL8B / RFU, ZBTB11 / Fold change vs veh, ZBTB11 / RFU, TAMM41 / Fold change vs veh, TAMM41 / RFU, KIAA1704 /// LOC100996395 / Fold change vs veh, KIAA1704 /// LOC100996395 / RFU, ING1 / Fold change vs veh, ING1 / RFU, TRMT61B / Fold change vs veh, TRMT61B / RFU, FUBP3 / Fold change vs veh, FUBP3 / RFU, TP53 / Fold change vs veh, TP53 / RFU, TNKS2 / Fold change vs veh, TNKS2 / RFU, ZFP14 / Fold change vs veh, ZFP14 / RFU, ACTR2 / Fold change vs veh, ACTR2 / RFU, PPP3R1 / Fold change vs veh, PPP3R1 / RFU, PIK3R1 / Fold change vs veh, PIK3R1 / RFU, HNRNPA1 / Fold change vs veh, HNRNPA1 / RFU, RNF170 / Fold change vs veh, RNF170 / RFU, ZNF28 / Fold change vs veh, ZNF28 / RFU, RNGTT / Fold change vs veh, RNGTT / RFU, OGT / Fold change vs veh, OGT / RFU, BRD1 / Fold change vs veh, BRD1 / RFU, MARS / Fold change vs veh, MARS / RFU, ZNF655 / Fold change vs veh, ZNF655 / RFU, FAHD1 / Fold change vs veh, FAHD1 / RFU, BDP1 / Fold change vs veh, BDP1 / RFU, LRRCC1 / Fold change vs veh, LRRCC1 / RFU, ARID1A / Fold change vs veh, ARID1A / RFU, ZNF146 / Fold change vs veh, ZNF146 / RFU, ZNF330 / Fold change vs veh, ZNF330 / RFU, GPN3 / Fold change vs veh, GPN3 / RFU, C9orf123 / Fold change vs veh, C9orf123 / RFU, N4BP2L2 / Fold change vs veh, N4BP2L2 / RFU, ARFIP1 / Fold change vs veh, ARFIP1 / RFU, FAM179B / Fold change vs veh, FAM179B / RFU, BCL10 / Fold change vs veh, BCL10 / RFU, UHRF1BP1L / Fold change vs veh, UHRF1BP1L / RFU, BET1 / Fold change vs veh, BET1 / RFU, CNOT2 / Fold change vs veh, CNOT2 / RFU, ZNF268 / Fold change vs veh, ZNF268 / Fold change vs veh, ZNF507 / RFU, DGCR2 / Fold change vs veh, DGCR2 / RFU, WDSUB1 / Fold change vs veh, WDSUB1 / Fold change vs veh, HSP90B1 /// MIR3652 / RFU, ADSS / Fold change vs veh, ADSS / RFU, GK / Fold change vs veh, GK / RFU, ZNF148 / Fold change vs veh, ZNF148 / RFU, TAF9 / Fold change vs veh, TAF9 / RFU, SLC1A5 / Fold change vs veh, SLC1A5 / RFU, SLMO2 / Fold change vs veh, SLMO2 / RFU, ABCC4 / Fold change vs veh, ABCC4 / RFU, LOC101060439 /// RAP1B / Fold change vs veh, LOC101060439 /// RAP1B / RFU, RFX7 / Fold change vs veh, RFX7 / RFU, GTPBP10 / Fold change vs veh, GTPBP10 / RFU, CNEP1R1 / Fold change vs veh, CNEP1R1 / RFU, BIVM-ERCC5 /// ERCC5 / Fold change vs veh, BIVM-ERCC5 /// ERCC5 / RFU, ILF3 / Fold change vs veh, ILF3 / RFU 11762660_at / Fold change /veh 11762660_at / RFU VCAN (11757783_s_at) / Fold change /veh VCAN (11757783_s_at) / RFU DDX43 (11728927_at) / Fold change /veh DDX43 (11728927_at) / RFU KRT8 (11758188_x_at) / Fold change /veh KRT8 (11758188_x_at) / RFU NKD1 (11759106_at) / Fold change /veh NKD1 (11759106_at) / RFU SRD5A1 (11742802_a_at) / Fold change /veh SRD5A1 (11742802_a_at) / RFU TPSAB1 /// TPSB2 (11721975_s_at) / Fold change /veh TPSAB1 /// TPSB2 (11721975_s_at) / RFU GSTM3 (11746129_a_at) / Fold change /veh GSTM3 (11746129_a_at) / RFU IL23R (11737362_x_at) / Fold change /veh IL23R (11737362_x_at) / RFU TMEM51 (11727254_a_at) / Fold change /veh TMEM51 (11727254_a_at) / RFU PIWIL2 (11732686_x_at) / Fold change /veh PIWIL2 (11732686_x_at) / RFU ORM1 (11744905_x_at) / Fold change /veh ORM1 (11744905_x_at) / RFU CCDC152 (11743942_at) / Fold change /veh CCDC152 (11743942_at) / RFU ECM1 (11717891_a_at) / Fold change /veh ECM1 (11717891_a_at) / RFU IL23R (11748794_a_at) / Fold change /veh IL23R (11748794_a_at) / RFU TNFAIP8L3 (11732012_x_at) / Fold change /veh TNFAIP8L3 (11732012_x_at) / RFU MBOAT4 (11741988_at) / Fold change /veh MBOAT4 (11741988_at) / RFU 11764193_at / Fold change /veh 11764193_at / RFU TMEM53 (11763286_at) / Fold change /veh TMEM53 (11763286_at) / RFU MAGEB2 (11727129_at) / Fold change /veh MAGEB2 (11727129_at) / RFU TMEM200A (11744735_a_at) / Fold change /veh TMEM200A (11744735_a_at) / RFU CCDC152 (11751479_a_at) / Fold change /veh CCDC152 (11751479_a_at) / RFU FAM211A (11726209_a_at) / Fold change /veh FAM211A (11726209_a_at) / RFU RGS16 (11746705_a_at) / Fold change /veh RGS16 (11746705_a_at) / RFU VCAN (11755009_s_at) / Fold change /veh VCAN (11755009_s_at) / RFU RHOB (11743442_s_at) / Fold change /veh RHOB (11743442_s_at) / RFU RGS16 (11720943_a_at) / Fold change /veh RGS16 (11720943_a_at) / RFU RGS16 (11720944_at) / Fold change /veh RGS16 (11720944_at) / RFU, VPS4B / Fold change vs veh, VPS4B / RFU, CREB1 / Fold change vs veh, CREB1 / RFU, DNAJC13 / Fold change vs veh, DNAJC13 / RFU, GNAQ / Fold change vs veh, GNAQ / RFU, CDK5R1 / Fold change vs veh, CDK5R1 / RFU, ZRANB3 / Fold change vs veh, ZRANB3 / RFU, CUL4A / Fold change vs veh, CUL4A / RFU, CCNY / Fold change vs veh, CCNY / RFU, UFL1 / Fold change vs veh, UFL1 / RFU, COG3 / Fold change vs veh, COG3 / RFU, DIAPH2 / Fold change vs veh, DIAPH2 / RFU, SKA2 / Fold change vs veh, SKA2 / RFU, AFF3 / Fold change vs veh, AFF3 / RFU, LMF1 / Fold change vs veh, LMF1 / RFU, IPO11 / Fold change vs veh, IPO11 / RFU, DFFB / Fold change vs veh, DFFB / RFU, FOXP1 / Fold change vs veh, FOXP1 / RFU, CARD8 / Fold change vs veh, CARD8 / RFU, STRN3 / Fold change vs veh, STRN3 / RFU, ADK / Fold change vs veh, ADK / RFU, RASSF2 / Fold change vs veh, RASSF2 / RFU, WIPF1 / Fold change vs veh, WIPF1 / RFU, LARP1B / Fold change vs veh, LARP1B / RFU, RASA1 / Fold change vs veh, RASA1 / RFU, RB1 / Fold change vs veh, RB1 / RFU, PPFIA1 / Fold change vs veh, PPFIA1 / RFU, MAT2A / Fold change vs veh, MAT2A / RFU, CCT5 / Fold change vs veh, CCT5 / RFU, WDR92 / Fold change vs veh, WDR92 / RFU, CUX1 / Fold change vs veh, CUX1 / RFU, TTC7A / Fold change vs veh, TTC7A / RFU, TMEM135 / Fold change vs veh, TMEM135 / RFU, DEPTOR / Fold change vs veh, DEPTOR / RFU, CPM / Fold change vs veh, CPM / RFU, DNAJB6 / Fold change vs veh, DNAJB6 / RFU, CACNA2D3 / Fold change vs veh, CACNA2D3 / RFU, DTX4 / Fold change vs veh, DTX4 / RFU, TFCP2 / Fold change vs veh, TFCP2 / RFU, GMCL1 /// GMCL1P1 / Fold change vs veh, GMCL1 /// GMCL1P1 / RFU, AEBP2 / Fold change vs veh, AEBP2 / RFU, SNHG1 /// SNORD22 /// SNORD25 /// SNORD26 /// SNORD27 /// SNORD28 /// SNORD29 /// SNORD31 / Fold change vs veh, SNHG1 /// SNORD22 /// SNORD25 /// SNORD26 /// SNORD27 /// SNORD28 /// SNORD29 /// SNORD31 / Fold change (Aza/veh), C12orf56 (ProbeSet 11735607_a_at) / Fold change (ACY-1035/veh), C12orf56 (ProbeSet 11735607_a_at) / Fold change (Aza/veh), FGFR1OP (ProbeSet 11751329_s_at) / Fold change (ACY-1035/veh), FGFR1OP (ProbeSet 11751329_s_at) / Fold change (Aza/veh), VPS36 (ProbeSet 11739960_a_at) / Fold change (ACY-1035/veh), VPS36 (ProbeSet 11739960_a_at) / RFU SYPL1 (11715823_x_at) / Fold change /veh SYPL1 (11715823_x_at) / RFU IGFBP7 (11715501_s_at) / Fold change /veh IGFBP7 (11715501_s_at) / RFU REEP3 (11722064_at) / Fold change /veh REEP3 (11722064_at) / RFU IGLL1 (11728026_x_at) / Fold change /veh IGLL1 (11728026_x_at): dose or concentration left out as unconfirmed
Conditions: ProbeSet 11723944_a_at; LIST B

SMILES: Nc1ncn([C@@H]2O[C@H](CO)[C@@H](O)[C@H]2O)c(=O)n1 [azacitidine]
- Fold change vs veh, PTTG1IP: 0.86
